Assay results reported in PMC5492033, “The N-Terminal Region of the Ryanodine Receptor Affects Channel Activation” (Frontiers in Physiology, 2017).
Where two headings read alike, the source gives them in different places. No end group written: not given here.

Tests used:
[1] = test system: RyR2; design: method as in 2 sources, one per row (each row's own in cited_ref): ref Zahradnikova and Zahradnik, 1993 ||| ref Faltinova and Zahradnikova, 2013; settings: ref Zahradnikova and Zahradnik, 1993; cited from earlier work
[2] = target: T1, RyR2 channel (Rattus norvegicus, UniProt B0LPN4); assay: Single RyR2 channel measurements in planar lipid bilayers; type: biochemical; settings: for EC50: 50% of maximum increase of open probability; for Kd: PO at 0.5–2 μM peptide, cytosolic Ca2+ 100 nM, read-out: Kp, dissociation constant of DPcpvtN2; for POmax, maximum open probability: PO0 0.0039
T1 construct: RyR2 channels were incorporated from a suspension of microsomal vesicles of the SR; from tissue; host or cells: rat (Wistar Han) heart ventricles, cardiac SR microsomes
Protocol: All experimental protocols were approved by the State veterinary and food administration of the Slovak Republic (Ro-3820/05-221, Ro-2821/09-221) and by the ethical committee of the Centre of Biosciences. All methods were carried out in accordance with the European directive 2010/63/EU. Male rats (Wistar Han, 240–310 g, breeding station Dobra Voda, reg. No. SK CH 24011, Slovak Republic) were anesthetized with sodium pentobarbital (50 mg kg^−1 i.p.), the hearts were excised, and cardiac SR microsomes were isolated from rat heart ventricles by differential centrifugation without further purification steps, as previously described (Gaburjakova and Gaburjakova, [2006]; Faltinova and Zahradnikova, [2013]), snap frozen in liquid nitrogen and stored at −70°C.
Preparation of bilayers, incorporation of channels and electrophysiological measurements were performed as previously described (Faltinova and Zahradnikova, [2013]). In brief, bilayer lipid membranes were formed over a 20–50 μm aperture in a polystyrene chamber. The aperture was first treated with a solution (26 mg/ml) of DOPS, DOPC and DPPC (3:5:5) in N-decane (Aldrich, USA). After evaporation of N-decane, the cis and trans compartments of the bilayer chamber were filled with the solutions (in mmol/l): cis, 250 HEPES, 50 KCl, 1 EGTA, 125 TRIS, 0.5 CaCl2, pH 7.35, [Ca^2+] = 90 nM; trans, 30 HEPES, 50 KCl, 1 Ca(OH)2, 7 Ba(OH)2, pH 7.35, and the bilayer was formed using a mixture of DOPS and DOPE (3:10; 26 mg/ml in N-decane). After formation of a bilayer, RyR2 channels were incorporated from a suspension of microsomal vesicles of the SR, added to the cis compartment. RyR identity was checked at the beginning of the experiment at high Ca^2+, when it was characteristic by its single-channel amplitude and open duration (Tencerova et al., [2012]; Faltinova and Zahradnikova, [2013]). Under the above ionic conditions, no other channels have similar properties. Detection of RyR channel was followed by perfusion to a basal Ca^2+ level. The identity of RyR was occasionally further tested at the end of the experiment by addition of 100 μM Ca^2+.
Currents through the incorporated single RyR2 channels were measured in voltage-clamp mode at 0 mV with MultiClamp 700B amplifier (Molecular Devices, USA) with a 50 GΩ feed-back resistor. The signal was filtered by a 4-pole Bessel filter at 1 kHz and digitized using an A/D converter (Digidata 1440A, Molecular Devices, USA) at a frequency of 4 kHz. Acquisition and analysis were performed using pClamp software (Ver. 10, Molecular Devices, USA) and Origin Pro (Ver. 9, OriginLab Corporation, USA).
Equilibrium open probabilities for different gating models (Equations 1–3) were determined from the gating schemes. Equations were derived using Mathematica (Ver. 10, Wolfram Research, USA) as previously described (Zahradnik et al., [2005]). The value of EC50 was calculated in Mathematica from Equations (1) to (3) as the ligand concentration, at which the increase of open probability reached 50% of maximum increase.

[3] = CD spectroscopy (secondary structure); type: physicochemical
Protocol: Circular dichroism (CD) measurements were performed using a Jasco J-810 spectropolarimeter (Japan). CD measurements were performed in the 198–250 nm wavelength range, which enabled estimation of the secondary structure of the peptide. The DPcpvtN2 peptide was dissolved either in 2 mM Na-phosphate (pH 7.0) or in 99.8% ethanol to a final concentration of 1.5–7 μM. CD spectra were expressed as averages of 3–5 consecutive scans. 1 mm cuvette was used for measurements. Typically, a time constant of 2 s, bandwidth of 2.0 nm, scanning speed 200 nm/min and the standard sensitivity were used. The spectra were analyzed using the web server CAPITO (Wiedemann et al., [2013]), which provides the percentage of α-helical, β-sheet and random coil in the secondary structure.

T1 sequence (B0LPN4 whole entry): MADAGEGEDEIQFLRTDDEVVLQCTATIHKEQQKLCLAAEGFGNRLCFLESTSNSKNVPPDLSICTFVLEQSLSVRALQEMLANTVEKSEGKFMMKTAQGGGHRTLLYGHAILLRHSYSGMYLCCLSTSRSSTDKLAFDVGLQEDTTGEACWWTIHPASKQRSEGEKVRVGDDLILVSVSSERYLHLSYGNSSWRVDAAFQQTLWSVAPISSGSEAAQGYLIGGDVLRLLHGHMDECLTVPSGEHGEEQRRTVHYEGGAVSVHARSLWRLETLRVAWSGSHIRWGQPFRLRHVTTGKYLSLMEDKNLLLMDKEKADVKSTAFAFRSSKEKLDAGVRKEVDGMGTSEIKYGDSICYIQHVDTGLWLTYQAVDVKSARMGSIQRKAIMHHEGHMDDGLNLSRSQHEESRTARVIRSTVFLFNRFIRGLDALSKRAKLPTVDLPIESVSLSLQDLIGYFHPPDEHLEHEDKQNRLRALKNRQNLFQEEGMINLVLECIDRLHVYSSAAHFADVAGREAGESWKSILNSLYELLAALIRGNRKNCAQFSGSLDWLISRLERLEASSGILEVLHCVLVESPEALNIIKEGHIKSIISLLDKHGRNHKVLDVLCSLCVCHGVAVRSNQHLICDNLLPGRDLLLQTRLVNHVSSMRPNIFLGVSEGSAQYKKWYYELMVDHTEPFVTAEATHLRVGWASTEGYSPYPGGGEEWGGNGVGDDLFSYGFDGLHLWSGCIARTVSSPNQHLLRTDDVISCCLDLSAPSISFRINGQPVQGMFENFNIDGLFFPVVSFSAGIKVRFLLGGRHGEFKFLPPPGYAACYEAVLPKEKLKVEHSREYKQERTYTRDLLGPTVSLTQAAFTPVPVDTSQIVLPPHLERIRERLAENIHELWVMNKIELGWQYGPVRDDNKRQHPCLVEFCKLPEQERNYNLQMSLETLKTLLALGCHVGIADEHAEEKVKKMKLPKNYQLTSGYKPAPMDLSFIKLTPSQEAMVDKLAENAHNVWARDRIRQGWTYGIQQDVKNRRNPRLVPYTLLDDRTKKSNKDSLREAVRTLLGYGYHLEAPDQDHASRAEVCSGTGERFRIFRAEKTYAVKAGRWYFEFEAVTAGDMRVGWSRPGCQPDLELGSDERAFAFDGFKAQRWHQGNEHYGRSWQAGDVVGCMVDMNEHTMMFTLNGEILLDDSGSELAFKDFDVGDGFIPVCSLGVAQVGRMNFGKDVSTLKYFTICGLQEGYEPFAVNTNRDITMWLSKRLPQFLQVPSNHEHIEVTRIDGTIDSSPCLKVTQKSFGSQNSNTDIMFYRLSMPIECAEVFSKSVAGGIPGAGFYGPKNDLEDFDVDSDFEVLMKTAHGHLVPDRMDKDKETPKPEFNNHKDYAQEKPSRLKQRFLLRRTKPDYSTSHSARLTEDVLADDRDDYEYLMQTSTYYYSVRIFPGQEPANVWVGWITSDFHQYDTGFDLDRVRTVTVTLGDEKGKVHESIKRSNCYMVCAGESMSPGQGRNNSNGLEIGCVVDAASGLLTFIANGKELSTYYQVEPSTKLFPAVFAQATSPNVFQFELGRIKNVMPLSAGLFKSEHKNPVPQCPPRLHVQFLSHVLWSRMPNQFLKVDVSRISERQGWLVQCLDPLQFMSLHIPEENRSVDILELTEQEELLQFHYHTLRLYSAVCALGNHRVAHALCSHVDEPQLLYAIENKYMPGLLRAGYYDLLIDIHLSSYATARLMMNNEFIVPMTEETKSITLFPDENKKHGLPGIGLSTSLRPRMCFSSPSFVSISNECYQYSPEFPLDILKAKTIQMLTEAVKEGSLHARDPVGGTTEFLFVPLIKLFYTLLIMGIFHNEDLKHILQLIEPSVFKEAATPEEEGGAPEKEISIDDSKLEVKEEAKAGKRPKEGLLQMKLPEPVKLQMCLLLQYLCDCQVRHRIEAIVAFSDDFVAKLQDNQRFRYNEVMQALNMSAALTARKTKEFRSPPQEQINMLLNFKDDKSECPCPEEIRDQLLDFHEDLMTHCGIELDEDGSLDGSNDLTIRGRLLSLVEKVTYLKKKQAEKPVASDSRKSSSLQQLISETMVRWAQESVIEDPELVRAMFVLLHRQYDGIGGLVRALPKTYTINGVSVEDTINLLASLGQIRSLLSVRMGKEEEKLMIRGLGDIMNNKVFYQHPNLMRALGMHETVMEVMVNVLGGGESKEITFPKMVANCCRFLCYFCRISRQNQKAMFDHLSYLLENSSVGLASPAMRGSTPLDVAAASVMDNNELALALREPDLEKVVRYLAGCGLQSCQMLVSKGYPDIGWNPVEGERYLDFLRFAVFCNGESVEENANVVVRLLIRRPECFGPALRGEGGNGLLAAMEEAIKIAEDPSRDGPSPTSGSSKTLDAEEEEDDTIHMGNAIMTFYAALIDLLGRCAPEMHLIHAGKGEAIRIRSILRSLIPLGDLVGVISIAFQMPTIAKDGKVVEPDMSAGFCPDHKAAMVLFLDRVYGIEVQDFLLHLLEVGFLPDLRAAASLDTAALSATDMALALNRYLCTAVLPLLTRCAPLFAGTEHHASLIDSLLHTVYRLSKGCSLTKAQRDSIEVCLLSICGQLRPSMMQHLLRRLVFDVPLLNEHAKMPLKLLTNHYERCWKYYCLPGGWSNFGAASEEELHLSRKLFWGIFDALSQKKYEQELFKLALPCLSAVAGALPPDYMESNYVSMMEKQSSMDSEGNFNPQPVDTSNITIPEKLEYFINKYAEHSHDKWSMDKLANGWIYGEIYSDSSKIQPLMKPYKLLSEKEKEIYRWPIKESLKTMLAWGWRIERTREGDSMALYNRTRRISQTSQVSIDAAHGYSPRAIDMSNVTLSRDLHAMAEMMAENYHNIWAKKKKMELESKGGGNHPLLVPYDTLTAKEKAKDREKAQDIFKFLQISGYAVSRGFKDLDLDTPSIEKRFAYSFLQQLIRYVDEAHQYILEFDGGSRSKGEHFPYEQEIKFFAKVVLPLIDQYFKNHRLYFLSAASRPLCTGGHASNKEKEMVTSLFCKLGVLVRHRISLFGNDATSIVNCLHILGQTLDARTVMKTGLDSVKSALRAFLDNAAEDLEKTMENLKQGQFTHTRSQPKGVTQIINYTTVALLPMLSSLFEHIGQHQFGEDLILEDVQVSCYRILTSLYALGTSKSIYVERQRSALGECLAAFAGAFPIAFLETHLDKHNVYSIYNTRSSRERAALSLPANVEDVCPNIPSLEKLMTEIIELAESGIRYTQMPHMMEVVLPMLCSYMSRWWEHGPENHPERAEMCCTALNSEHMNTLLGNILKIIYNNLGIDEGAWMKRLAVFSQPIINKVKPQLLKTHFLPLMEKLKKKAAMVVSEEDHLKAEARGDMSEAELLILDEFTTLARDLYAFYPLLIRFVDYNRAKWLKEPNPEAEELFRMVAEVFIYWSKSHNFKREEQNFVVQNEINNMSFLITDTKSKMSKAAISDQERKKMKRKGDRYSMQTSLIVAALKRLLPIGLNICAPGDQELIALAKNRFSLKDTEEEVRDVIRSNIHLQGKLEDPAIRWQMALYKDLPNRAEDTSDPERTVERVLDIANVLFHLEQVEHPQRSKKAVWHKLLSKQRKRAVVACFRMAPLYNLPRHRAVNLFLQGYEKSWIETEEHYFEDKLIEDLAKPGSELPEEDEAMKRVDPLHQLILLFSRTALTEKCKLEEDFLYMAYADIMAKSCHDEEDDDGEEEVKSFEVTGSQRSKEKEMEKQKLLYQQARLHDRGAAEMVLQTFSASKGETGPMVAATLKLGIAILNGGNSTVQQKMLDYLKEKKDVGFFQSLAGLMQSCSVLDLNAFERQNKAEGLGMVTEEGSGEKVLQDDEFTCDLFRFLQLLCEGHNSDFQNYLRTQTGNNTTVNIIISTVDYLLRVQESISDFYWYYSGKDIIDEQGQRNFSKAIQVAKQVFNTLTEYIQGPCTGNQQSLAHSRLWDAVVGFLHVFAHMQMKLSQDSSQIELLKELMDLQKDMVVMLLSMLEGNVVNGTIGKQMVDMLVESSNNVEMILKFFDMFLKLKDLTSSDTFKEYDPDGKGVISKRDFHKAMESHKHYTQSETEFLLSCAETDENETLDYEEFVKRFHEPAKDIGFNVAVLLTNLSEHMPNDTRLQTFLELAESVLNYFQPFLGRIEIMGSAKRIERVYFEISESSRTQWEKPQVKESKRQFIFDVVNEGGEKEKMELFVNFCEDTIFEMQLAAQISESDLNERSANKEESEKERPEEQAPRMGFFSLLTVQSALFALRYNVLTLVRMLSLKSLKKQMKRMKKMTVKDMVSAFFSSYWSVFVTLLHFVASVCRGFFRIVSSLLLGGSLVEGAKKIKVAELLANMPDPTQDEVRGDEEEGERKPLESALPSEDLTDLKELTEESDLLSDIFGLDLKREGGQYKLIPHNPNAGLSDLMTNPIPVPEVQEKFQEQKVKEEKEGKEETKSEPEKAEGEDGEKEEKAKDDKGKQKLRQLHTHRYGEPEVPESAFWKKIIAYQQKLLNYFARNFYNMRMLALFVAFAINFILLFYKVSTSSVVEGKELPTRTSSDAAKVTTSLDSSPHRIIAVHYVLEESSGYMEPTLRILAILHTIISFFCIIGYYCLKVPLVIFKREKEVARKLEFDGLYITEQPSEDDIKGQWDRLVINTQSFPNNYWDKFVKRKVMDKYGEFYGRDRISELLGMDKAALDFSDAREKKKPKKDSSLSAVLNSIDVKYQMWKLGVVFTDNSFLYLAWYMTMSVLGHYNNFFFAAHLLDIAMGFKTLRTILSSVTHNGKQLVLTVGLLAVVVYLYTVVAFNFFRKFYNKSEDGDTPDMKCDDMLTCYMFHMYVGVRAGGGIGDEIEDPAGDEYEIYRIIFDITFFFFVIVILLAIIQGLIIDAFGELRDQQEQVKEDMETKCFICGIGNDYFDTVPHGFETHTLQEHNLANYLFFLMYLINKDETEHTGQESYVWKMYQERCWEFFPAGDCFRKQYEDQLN

O=S(=O)(O)c1cc(N=C=S)ccc1C=Cc1ccc(N=C=S)cc1S(=O)(=O)O [DIDS]
Effect on RyR2 activity [1]: all-or-none

HEESRTARVIRSTVFLFBRFIRGLDALSK (HEESRTARVIRSTVFLFXRFIRGLDALSK; not fully specified) [DPcpvtN2, domain peptide containing amino acids 410–438 of human RyR2, the central helix of the N-terminal region]
EC50 ([2]; calculated from Equation (1), gating scheme GS1): 66.4 µM
EC50 ([2]; calculated from Equation (2), gating scheme GS2): 17.6 µM
EC50 ([2]; calculated from Equation (3), gating scheme GS3): 0.41 µM
Kd ([2]; fit by gating scheme GS1 (Equation 1: one peptide bound opens channel), 0 mV, n = 9 channels): 351 ± 99 µM
Kd ([2]; fit by gating scheme GS2 (Equation 2: four peptides bound open channel; fit rejected), 0 mV, n = 9 channels): 3.35 ± 0.56 µM

HEESRTARVIRSTVFLFBRFIRGLDALSK [DPcpvtN2, domain peptide containing amino acids 410–438 of human RyR2, the central helix of the N-terminal region]
Effect on RyR2 open probability ([2]; 0.5–2 μM, cis side, diastolic conditions (100 nM cytosolic Ca2+, 1 mM luminal Ca2+, 0 mV), 2-min recording, n = 9 channels): Increase in open probability and the presence of long openings could be observed at all DPcpvtN2 concentrations
Time to occurrence of long openings after addition ([2]; 0.5–2 μM, diastolic conditions, 0 mV): ≤ 1 min
Open time (tO) of long openings ([2]; 0.5–2 μM, diastolic conditions, 0 mV, control openings tO ~ 15 ms): > 100 ms
fp, allosteric factor ([2]; fit by gating scheme GS3 (Equation 3), couples DPcpvtN2 binding to channel opening): 0.61 ± 0.10
POmax, maximum open probability ([2]; gating scheme GS1): 1
POmax, maximum open probability ([2]; gating scheme GS2): 1
POmax, maximum open probability ([2]; gating scheme GS3): 0.0275
Reversibility of the interaction between channel and peptide ([2]; inferred from concentration dependence of RyR open probability): readily reversible
Ellipticity in ethanol compared with aqueous solution ([3]; 1.5–3 μM, ethanol vs. phosphate buffer pH 7.0): an order of magnitude higher
Content of α-helix ([3]; CD spectra, 1.5–3 μM in phosphate buffer pH 7.0 or ethanol (solvent of the estimate not specified), CAPITO web server): 99%
